The results in this text go back to patent US10556920B2, “Phosphorus-containing heterocycles and a method for making and using” (University of Oregon, priority 2015, dated 2020).

Each structure is given as a SMILES string.

Holding throughout (format): physicochemical
Data set [1] in a line: Fluorescence excitation/emission. The source says: ^1H and ^13C NMR spectra were obtained on a Varian 300 MHz spectrometer (^1H: […], ^13C: […]), Inova 500 MHz spectrometer (^1H: 500.10 MHz, ^13C: 125.75 MHz) or Varian 600 MHz spectrometer (^1H: 599.98 MHz, ^13C: 150.87 MHz). Chemical shifts (6) are expressed in ppm using non-deuterated solvent present in the bulk deuterated solvent (CDCl3: ^1H 7.26 ppm, ^13C 77.16 ppm; (CD3)2SO: ^1H 2.5 ppm, ^13C 39.52 ppm). Solvents and reagents were used as purchased from suppliers, unless anhydrous conditions were employed, in which solvents were freshly distilled from sodium/benzophenone under N2 atmosphere (THF) or as purchased in sealed, DriSolv containers (pyridine). Triphenylphosphite was freshly distilled under vacuum before use. Mass spectra were acquired with a Waters LCT Premier ESI-MS in positive mode using acetone as a solvent. UV-Vis spectra were acquired with a Hewlett-Packard 8453 UV-Visible spectrophotometer equipped with a 250 nm cutoff filter. Fluorescence data was acquired with a Horiba Jobin-Yvon FluoroMax-4 fluorescence spectrophotometer. HPLC performed using a JAI Recycling Preparative HPLC (Model LC-9101) with a JAIGEL-1H preparative column.
The compounds gave fluorescence emissions similar to those of carbostyril. (3-Ph-carbostyril ex: 345 nm, em: 410 nm; II-3 ex: 354 nm, em: 427 nm).
The only scaffold which responded to the addition of acid was one containing a 2-pyridyl substituent, which directly corresponded to protonation of the pyridine. The N—H proton of the NH—P(OPh)=O functionality is fairly acidic, and easily removed via treatment with organic bases such as DBU. […] The fluorophore II-7 gave substitution patterns that were followed for both red-shift and quantum yield optimization of carbostyril fluorophores. Following the guidelines within the scaffold, with placement of electron donating groups in the 6- and 7-positions, and an electron-withdrawing group in the 3-position, yielded a fluorophore with an emission of 505 nm and a quantum yield of 45% in CHCl3.

Data set [2] can be described thus: Dimerization in solution. The source says: This corresponded to an energy of 1.5 kcal/mol for each H-bond, which was quite high compared to cis-amides such as pyrrolidone or caprolactam, who experience dimerization constants from 1-5 M^−1 in CHCl3. […] As a result, this dimer deviated from the trends previously reported, where each attractive interaction gave −1.88 kcal/mol of energy to ΔG, and each repulsive secondary interaction gave +0.74 kcal/mol. Following the same schema, the two repulsive secondary interactions in the present dimer yielded only +0.76 kcal/mol of destabilization, about half of what was expected.

A short description of data set [3]: Stability of phosphonimidate form toward hydrolysis/heat. The note with it: 100° C. reaction conditions. The source says: Disclosed herein is a synthetic approach to assemble the 2-λ^5-phosphaquinoline in one step from easily attainable starting materials. By treatment of a 2-ethynyl aniline (for example, accessible from Sonogashira cross-coupling with commercially available 2-iodoanilines) with triphenylphosphite, the disclosed compounds were synthesized in good to modest yields (Table 1). Typically, upon isolation and purification via hot recrystallization in ambient atmosphere, the phosphaquinoline partially hydrolyzed, yielding the phosphaquinolinone form and releasing phenol. However, the phosphonimidate form (A) appeared to be stable at room temperature. This reaction was tolerant to a variety of electron-rich and electron-poor arenes, as well as alkyl functionality attached at the ethynyl.
Except for compounds with a 2-pyridyl substituent, the phosphonimidate compounds tended to hydrolyze when heated in ambient atmosphere to give the phosphonamidate. If the reaction was performed rigorously water-free, and worked up with minimal exposure to ambient atmosphere, the phosphonimidate forms (I) can be isolated for all of the derivatives. […] This and stability of the phosphonimidate toward hydrolysis at room temperature lent credence to increased stability from delocalization within the heterocycle.

[4] abbreviates: TEA added, in CHCl3 (deprotonated N-H).

For the molecule `O=P1(Oc2ccccc2)Nc2ccccc2C=C1c1ccccc1` (centres unmarked) [II-3, 2-phenoxy-3-phenyl-1H-benzo[e][1,2]azaphosphinine 2-oxide], in data set [1] (solvent not stated), the “fluorescence emission (em)” value was 427 nm and the “fluorescence excitation (ex)” value is 354 nm.
For `N#Cc1ccc(C2=Cc3ccccc3NP2(=O)Oc2ccccc2)cc1` (centres unmarked) [II-1, 4-(2-oxido-2-phenoxy-1H-benzo[e][1,2]azaphosphinin-3-yl)benzonitrile], in data set [2] (from dimerization constant in CDCl3), the “energy for each H-bond” value was 1.5 kcal/mol. Moreover, in data set [2] (in CDCl3), the dimerization constant amounted to 133 ± 15 M⁻¹. For the same molecule, the “fluorescence emission (em)” value in data set [1] (CHCl3, neutral form) is reported as 430 nm; in data set [1] (MeCN), 450 nm; in data set [1] (setting [4]), 542 nm. The “fluorescence excitation (ex)” value in data set [1] (CHCl3, neutral form) worked out at 345 nm; in data set [1] (setting [4]) it was 360 nm. In data set [1] (upon treatment with base (TEA) in CHCl3), the Stokes shift turned out to be 180 nm.
Consider `CCOC(=O)c1ccc(C2=Cc3ccccc3N=P2(Oc2ccccc2)Oc2ccccc2)cc1` [I-2, ethyl 4-(2,2-diphenoxy-2-λ^5-benzo[e][1,2]azaphosphinin-3-yl)benzoate], for which, in data set [3], the “stability under reaction conditions” value was “quite stable”.
As to `N#Cc1ccc(C2=Cc3cc4c(cc3NP2(=O)Oc2ccccc2)OCO4)cc1` (centres unmarked) [II-7, 4-(2-oxido-2-phenoxy-1H-[1,3]dioxolo[4′,5′:4,5]benzo[1,2-e][1,2]azaphosphinin-3-yl)benzonitrile], the “fluorescence emission (em)” value in data set [1] (CHCl3, neutral form) turned out to be 505 nm. Further, the quantum yield in data set [1] (in CHCl3) is given as 45%.
In the case of `COc1ccc(C2=Cc3ccccc3NP2(=O)Oc2ccccc2)cc1` (centres unmarked) [II-4, 3-(4-methoxyphenyl)-2-phenoxy-1H-benzo[e][1,2]azaphosphinine 2-oxide], the “fluorescence emission (em)” value in data set [1] (CHCl3, neutral form) is on record as 411 nm; in data set [1] (MeCN), 411 nm.
As to `O=c1[nH]c2ccccc2cc1-c1ccccc1` [3-Ph-carbostyril, reference compound], in data set [1] (solvent not stated), the “fluorescence emission (em)” value was determined as 410 nm and the “fluorescence excitation (ex)” value is given as 345 nm.
